Test results as given in patent publication US9428460B2, “N-[4-(quinolin-4-yloxy)cyclohexyl(methyl)](hetero)arylcarboxamides as androgen receptor antagonists, production and use thereof as medicinal products” (BAYER PHARMA AKTIENGESELLSCHAFT, priority 2012, dated 2016).

How the values were obtained:
[1] = molecular target: human androgen receptor (full length, wild-type form) (Homo sapiens (Human), UniProt P10275); test: Transactivation assay for the wild-type androgen receptor (PC-3 cells, MMTV-luciferase reporter); format: cell-based; conditions: in the presence of R1881, 16 hours
From the text: For determining the androgen receptor-dependent transcription, a cellular assay system was used, consisting of PC-3 cells (Kaighn et al., Invest. Urol. 17: 16-23, 1979), which express the human androgen receptor stably and recombinantly (full length, wild-type form, see Swiss-Prot Acc. No. P10275, Entry Version 159, Sequence Version 2). In addition, these PC3 cells contain a stably integrated reporter gene plasmid, which is based on the commercially available plasmid pGL4.14 (#E6691, Promega Corporation, Madison, Wis., USA) and contains the luciferase gene from the American firefly (Photinus pyralis) under the control of the MMTV promoter (Cato et al., EMBO J. 6: 363-368, 1987). These cells were propagated in routine cell culture at 37° C. and 5% CO2 in a medium containing 90% RPMI 1640 (Invitrogen GmbH, Darmstadt, Germany), 100 U penicillin, 100 μg/ml streptomycin (Invitrogen), 4 mM L-glutamine (Invitrogen), 10% fetal calf serum (FCS Serum Gold, PAA Laboratories GmbH, Cölbe, Germany), 600 μg/ml Geneticin (G418-sulphate, Invitrogen) and 10 μg/ml puromycin (Sigma Aldrich GmbH, Germany).
For carrying out the transactivation assays, approx. 1000 cells per well were plated out in a 384-well cell culture plate in a medium that contained activated charcoal-treated calf serum (FCS Serum Gold, PAA Laboratories) at a concentration of 5% (v/v). The test substances were added in a concentration series from 5.12×10^−12 to 1×10^−5 M in the presence of […] R1881 (methyltrienolone). The test plates were incubated overnight at 37° C. and 5% CO2. After 16 hours, 15 μl of Steady Glo Lysis and Detection reagent (E2550, Promega Corporation, Madison, Wis., USA) was added per well and the luminescence was read in a Topcount Luminometer (PerkinElmer, Waltham, Mass., USA) for 4 seconds per well. The luminescence values obtained were normalized, wherein 100% corresponded to the effect of the unstimulated control (without R1881), and 0% corresponded to the effect of the stimulated control (R1881 plus DMSO instead of test substance). The IC50 value was determined by regression analysis based on a four-parameter equation (minimum, maximum, IC50, Hill coefficient; Y=Max+(Min−Max)/(1+(X/IC50)^Hill)).

LNCaP cells = test: Proliferation assay with LNCaP cells; format: cell-based; conditions: Homo sapiens, 168 h, in the presence of 1×10^−10 M R1881, seven days, AlamarBlue, read-out: IC50 LNCaP cell proliferation
Description: LNCaP cells (Horoszewicz et al., in “Models for Prostate Cancer” (ed. G. P. Murphy), Alan R. Liss, New York 1981, p. 115-132; Horoszewicz et al., Cancer Res. 43: 1809-1818, 1983) were plated out at a density of 2000 cells per well of a 96-well cell culture plate in RMPI 1640 medium (F1275, Biochrom AG), which contained activated charcoal-treated calf serum (FCS Serum Gold, PAA Laboratories) at a concentration of 5% (v/v). Three days later the cells were treated with the test substances in concentrations from 1×10^−8 to 1×10^−10 M in the presence of 1×10^−10 M R1881. Cell proliferation was determined seven days later after incubation for 2 hours with AlamarBlue (DAL1100, Invitrogen) (Nakayama et al., J Immunol Methods, 204(2): 205-8, 1997). The fluorescence values obtained were normalized, wherein 100% corresponded to the effect of the unstimulated control (without R1881), and 0% corresponded to the effect of the stimulated control (R1881 plus DMSO instead of test substance). The IC50 value was determined by regression analysis based on a four-parameter equation (minimum, maximum, IC50, Hill coefficient; Y=Max+(Min−Max)/(1+(X/IC50)^Hill)).

human androgen receptor (full length, wild-type form), sequence (P10275 whole entry): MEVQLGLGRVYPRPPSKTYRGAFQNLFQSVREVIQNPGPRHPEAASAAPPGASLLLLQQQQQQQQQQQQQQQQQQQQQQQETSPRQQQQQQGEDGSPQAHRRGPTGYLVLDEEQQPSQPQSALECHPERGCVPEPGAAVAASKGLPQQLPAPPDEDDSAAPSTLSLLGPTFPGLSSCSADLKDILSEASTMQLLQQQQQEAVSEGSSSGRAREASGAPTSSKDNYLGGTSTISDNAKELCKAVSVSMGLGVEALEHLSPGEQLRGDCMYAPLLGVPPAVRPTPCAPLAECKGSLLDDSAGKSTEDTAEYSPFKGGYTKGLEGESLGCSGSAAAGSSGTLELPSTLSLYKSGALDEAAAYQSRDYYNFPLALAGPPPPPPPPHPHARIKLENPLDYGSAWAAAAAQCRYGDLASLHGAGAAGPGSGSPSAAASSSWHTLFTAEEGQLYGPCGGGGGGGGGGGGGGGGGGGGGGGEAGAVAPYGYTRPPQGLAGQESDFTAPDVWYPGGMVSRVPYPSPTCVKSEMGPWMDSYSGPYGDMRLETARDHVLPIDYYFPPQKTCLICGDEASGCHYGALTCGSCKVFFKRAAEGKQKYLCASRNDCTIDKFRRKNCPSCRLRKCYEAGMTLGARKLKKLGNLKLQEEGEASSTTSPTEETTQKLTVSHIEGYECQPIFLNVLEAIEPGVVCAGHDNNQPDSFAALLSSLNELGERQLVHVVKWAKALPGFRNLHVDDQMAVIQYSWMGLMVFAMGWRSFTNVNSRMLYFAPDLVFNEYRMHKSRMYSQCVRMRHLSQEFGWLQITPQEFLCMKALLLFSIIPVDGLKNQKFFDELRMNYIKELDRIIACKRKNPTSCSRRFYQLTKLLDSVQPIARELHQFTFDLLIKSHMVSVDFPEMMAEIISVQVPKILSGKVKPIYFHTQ

SMILES	IC50 [1] [nM]	IC50 (LNCaP cells) [nM]
N#Cc1ccc(C(=O)N[C@H]2CC[C@H](Oc3ccnc4c(Br)cccc34)CC2)cc1 [Example 15, N-{trans-4-[(8-bromoquinolin-4-yl)oxy]cyclohexyl}-4-cyanobenzamide]	261	190
Cc1ccc(C(=O)N[C@H]2CC[C@H](Oc3ccnc4c(Br)cccc34)CC2)cc1F [Example 14, N-{trans-4-[(8-bromoquinolin-4-yl)oxy]cyclohexyl}-3-fluoro-4-methylbenzamide]	68	–
O=C(N[C@H]1CC[C@H](Oc2ccnc3c(Br)cccc23)CC1)c1cccc(F)c1 [Example 12, N-{trans-4-[(8-bromoquinolin-4-yl)oxy]cyclohexyl}-3-fluorobenzamide]	93	–
O=C(NC[C@H]1CC[C@H](Oc2ccnc3c(F)cccc23)CC1)c1ccc(F)cc1 [Example 1, N-({trans-4-[(8-fluoroquinolin-4-yl)oxy]cyclohexyl}methyl)-4-fluorobenzamide]	240	170
O=C(N[C@H]1CC[C@H](Oc2ccnc3c(Br)cccc23)CC1)c1ccc(F)cc1 [Example 17, N-{trans-4-[(8-bromoquinolin-4-yl)oxy]cyclohexyl}-4-fluorobenzamide]	477	–
O=C(N[C@H]1CC[C@H](Oc2ccnc3ccccc23)CC1)c1ccc(F)c(F)c1 [Example 3, N-[trans-4-(4-quinolyloxy)cyclohexyl]-3,4-difluorobenzamide]	45	99
O=C(NC[C@H]1CC[C@H](Oc2ccnc3c(F)cccc23)CC1)c1ccno1 [Example 5, N-({trans-4-[(8-fluoroquinolin-4-yl)oxy]cyclohexyl}methyl)-isoxazole-5-carboxamide]	460	390
O=C(N[C@H]1CC[C@H](Oc2ccnc3c(Br)cccc23)CC1)c1ccc(F)c(F)c1 [Example 13, N-{trans-4-[(8-bromoquinolin-4-yl)oxy]cyclohexyl}-3,4-difluorobenzamide]	170	–
O=C(N[C@H]1CC[C@H](Oc2ccnc3c(Br)cccc23)CC1)c1ccc(C(F)(F)F)c(F)c1 [Example 16, N-{trans-4-[(8-bromoquinolin-4-yl)oxy]cyclohexyl}-3-fluoro-4-(trifluoromethyl)benzamide]	463	–
Cc1cc(C(=O)NC[C@H]2CC[C@H](Oc3ccnc4c(F)cccc34)CC2)no1 [Example 7, N-({trans-4-[(8-fluoroquinolin-4-yl)oxy]cyclohexyl}methyl)-5-methylisoxazole-3-carboxamide]	480	97
Cc1cc(C(=O)N[C@H]2CC[C@H](Oc3ccnc4c(Br)cccc34)CC2)no1 [Example 2, N-{trans-4-[(8-bromoquinolin-4-yl)oxy]cyclohexyl}-5-methylisoxazole-3-carboxamide]	20	–
O=C(NC[C@H]1CC[C@H](Oc2ccnc3c(F)cccc23)CC1)c1cc[nH]n1 [Example 8, N-({trans-4-[(8-fluoroquinolin-4-yl)oxy]cyclohexyl}methyl)-1H-pyrazole-3-carboxamide]	420	1120
Cc1nocc1C(=O)NC[C@H]1CC[C@H](Oc2ccnc3c(F)cccc23)CC1 [Example 4, N-({trans-4-[(8-fluoroquinolin-4-yl)oxy]cyclohexyl}methyl)-3-methylisoxazole-4-carboxamide]	210	250
O=C(NC[C@H]1CC[C@H](Oc2ccnc3c(F)cccc23)CC1)c1ccon1 [Example 6, N-({trans-4-[(8-fluoroquinolin-4-yl)oxy]cyclohexyl}methyl)isoxazole-3-carboxamide]	740	21

Second part, the compound after the results:

IC50 [1] [nM]	IC50 (LNCaP cells) [nM]	SMILES
18	–	Cc1cc(C(=O)N[C@H]2CC[C@H](Oc3ccnc4c(C#N)cccc34)CC2)no1 [Example 26, N-{trans-4-[(8-cyanoquinolin-4-yl)oxy]cyclohexyl}-5-methylisoxazole-3-carboxamide]
140	233	N#Cc1cccc2c(O[C@H]3CC[C@H](NC(=O)c4ccc(F)cc4)CC3)ccnc12 [Example 25, N-{trans-4-[(8-cyanoquinolin-4-yl)oxy]cyclohexyl}-4-fluorobenzamide]
650	560	Cc1cc(C(=O)NC[C@H]2CC[C@H](Oc3ccnc4c(C#N)cccc34)CC2)no1 [Example 32, N-({trans-4-[(8-cyanoquinolin-4-yl)oxy]cyclohexyl}methyl)-5-methylisoxazole-3-carboxamide]
690	–	Cc1cc(C(=O)NC[C@H]2CC[C@H](Oc3ccnc4c(Br)cccc34)CC2)no1 [Example 20, N-({trans-4-[(8-bromoquinolin-4-yl)oxy]cyclohexyl}methyl)-5-methylisoxazole-3-carboxamide]
39	30	N#Cc1cccc2c(O[C@H]3CC[C@H](NC(=O)c4cc(F)cc(F)c4)CC3)ccnc12 [Example 30, N-{trans-4-[(8-cyanoquinolin-4-yl)oxy]cyclohexyl}-3,5-difluorobenzamide]
630	–	O=C(NC[C@H]1CC[C@H](Oc2ccnc3c(Br)cccc23)CC1)c1ccon1 [Example 21, N-({trans-4-[(8-bromoquinolin-4-yl)oxy]cyclohexyl}methyl)isoxazole-3-carboxamide]
330	87	N#Cc1ccc(C(=O)NC[C@H]2CC[C@H](Oc3ccnc4ccccc34)CC2)cc1 [Example 22, N-{[trans-4-(4-quinolyloxy)cyclohexyl]methyl}-4-cyanobenzamide]
190	–	O=C(N[C@H]1CC[C@H](Oc2ccnc3c(Br)cccc23)CC1)c1ccc(F)c(Cl)c1 [Example 18, N-{trans-4-[(8-bromoquinolin-4-yl)oxy]cyclohexyl}-3-chloro-4-fluorobenzamide]
67	–	N#Cc1cccc2c(O[C@H]3CC[C@H](NC(=O)c4ccc(F)c(Cl)c4)CC3)ccnc12 [Example 27, 3-chloro-N-{trans-4-[(8-cyanoquinolin-4-yl)oxy]cyclohexyl}-4-fluorobenzamide]
61	29	N#Cc1cccc2c(O[C@H]3CC[C@H](NC(=O)c4ccc(Cl)c(F)c4)CC3)ccnc12 [Example 29, 4-chloro-N-{trans-4-[(8-cyanoquinolin-4-yl)oxy]cyclohexyl}-3-fluorobenzamide]
720	730	N#Cc1cccc2c(O[C@H]3CC[C@H](CNC(=O)c4ccon4)CC3)ccnc12 [Example 31, N-({trans-4-[(8-cyanoquinolin-4-yl)oxy]cyclohexyl}methyl)isoxazole-3-carboxamide]
45	51	Cc1ccc(C(=O)N[C@H]2CC[C@H](Oc3ccnc4c(C#N)cccc34)CC2)cc1F [Example 28, N-{trans-4-[(8-cyanoquinolin-4-yl)oxy]cyclohexyl}-3-fluoro-4-methylbenzamide]
